Experimental data from paper PMC3723861, “Nitrile hydratase of Rhodococcus erythropolis: characterization of the enzyme and the use of whole cells for biotransformation of nitriles” (3 Biotech, 2012).

Tested on: T1, nitrile hydratase
T1 construct: gene nthA; native intracellular enzyme purified from R. erythropolis MTCC 1526 grown with CoCl2; subunits about 29 kDa (alpha) and 30 kDa (beta); native 65 kDa
Assay: nicotinamide formation by HPLC, Lineweaver-Burk plot
Type: biochemical, Rhodococcus erythropolis
Conditions: pH 7.0, 20 mM phosphate buffer, 25 °C (Fig. 6 legend says 20 °C); 0.2-2.0 mM substrate

`N#Cc1cccnc1` [3-cyanopyridine] gave a Km of 624 µM.
